Measured values from ChEMBL document CHEMBL5727988, “Prodrugs of pyridone amides useful as modulators of sodium channels” (2020).

Experiment: Electrophysiology Assay: Patch clamp electrophysiology was used to assess the efficacy and selectivity of sodium channel blockers in dorsal root ganglion neurons. Rat neurons were isolated from the dorsal root ganglions and maintained in culture for 2 to 10 days in the presence of NGF (50 ng/ml) (culture media consisted of NeurobasalA supplemented with B27, glutamine and antibiotics). Small diameter neurons (nociceptors, 8-12 μm in diameter) were visually identified and probed with fine tip glass electrodes connected to an amplifier (Axon Instruments). The “voltage clamp” mode was used to assess the compound's IC50 holding the cells at −60 mV. In addition, the “current clamp” mode was employed to test the efficacy of the compounds in blocking action potential generation in response to current injections.

COc1cc(NC(=O)c2ccc(C(F)(F)F)cc2F)ccn1
IC50: 44 nM

Cc1cc(F)ccc1Oc1cc(C(F)(F)F)ccc1C(=O)Nc1ccn(CCl)c(=O)c1
IC50: 28 nM
